Experimental data: patent US20240336567A1, “PESTICIDAL AND HERBICIDAL COMPOUNDS AND METHODS OF USE THEREOF” (AG Plenus Ltd, priority 2021, published 2024)
Where two headings read alike, the source gives them in different places.

Legend:
[1] = in vitro thermal shift (binding of compound to the target); settings: thermal shift caused by binding of the compound to the (unnamed) target
Arabidopsis thaliana [2] = assay: HTPS (high throughput on soil) - Dicot - Post-emergence; type: in vivo; settings: N/A: not active; for Emax: read-out: HTPS - Dicot - Post Max effect; for HTPS - Dicot - Post ED50: from normalized green area
Procedure: (§1) Arabidopsis thaliana seeds were sown in 96 well plates filled with irrigated Sweet sand (10%>clay) that is washed from salts and minerals using tap water. 5-10 seeds were sown in the center of each well. 7-8 days post sowing, at 2 true leaves stage, thinning out was performed to ensure that compound application is done on a single plant per well. The plates were placed in a controlled greenhouse in a random order inside a bath which allows flooding irrigation with tap water supplemented with a fertilizer. Applied compounds were dissolved into a final solution of 50% acetone, 49.9% DDW, 0.1% tween-20. A 96 well plate was used as a stock plate for preparing application solutions for 8 repeats. Each row contained different concentrations per chemical. Maximal concentration for application was 1.5 Kg/Ha and dilution factor is 2.5. Chemical application was performed one day after thinning out in a chemical hood. 5 μL applied on first two true leaves in each well using 12 channel pipettes. Data collection: RGB (red, green, blue) data for green area per well was documented using camera. Data is collected at a few time points during the experiment: one day after thinning and before chemical application, two-, six- or nine-days post application. During the last two documentations, visual phenotyping was performed. Data analysis: Given RGB results and visual phenotype scores, a student t-test conducted to compare between treatment and control performance for continuous data (RGB) and Fisher exact test to analyze the non-continuous data (phenotypic scores). Dose-Response curves are generated for each treatment to infer ED50 and max. inhibition parameters, using treatment's log concentration range as the […] variable and normalized green area. Plate imaging performed at 11 and 18 DAA. RGB data for green area per well was documented and used to extract % inhibition. Dose-Response curves were built for each treatment to infer ED50, ED75 and ED90 parameters, using treatment's log concentration range as the independent variable and normalized green area as the dependent variable. Treatments were compared to controls performance given RGB results and using student's t-test (p-val≤0.05).

Arabidopsis thaliana [3] = assay: HTPS - Dicot - Pre-emergence; type: in vivo; settings: N/A: not active; for Emax: read-out: HTPS - Dicot - Pre Max effect
Procedure: as §1, with “area. These experiments are conducted similarly except that either Arabidopsis thaliana or Eragrostis teff seeds were sowed (5-10 or 5-7, respectively), plant thinning out was not performed, compound dissolved into a final solution of 50% acetone, 49.9% DDW, compound application was done at 30 μL volume per well directly on sowed soil before plant emergence and data was collected 10 or 7 days after chemical application on dicot or monocot plants, respectively.” for “area.”

Eragrostis teff = assay: HTPS - Monocot - Pre-emergence; type: in vivo; settings: N/A: not active; for Emax: read-out: HTPS - Monocot - Pre Max effect
Procedure: as §1, with “area. These experiments are conducted similarly except that either Arabidopsis thaliana or Eragrostis teff seeds were sowed (5-10 or 5-7, respectively), plant thinning out was not performed, compound dissolved into a final solution of 50% acetone, 49.9% DDW, compound application was done at 30 μL volume per well directly on sowed soil before plant emergence and data was collected 10 or 7 days after chemical application on dicot or monocot plants, respectively.” for “area.”

SETVI = assay: In-planta LTP pre-emergence, visual phenotype; type: in vivo, Setaria viridis; settings: monocot; for pest or weed control at 2000 g/ha: Setaria viridis, 432 h
Procedure: (§2) A basic panel of 8 weed species (Table 3) were sowed in 4×4×7 cm plastic pots containing inert sand (Sweet sand), intensively washed using osmosis water. Each specie was sowed in a separate pot. In each pot 10-15 seeds were sowed according to the specie viability. Sowing was performed one day before application. The plants were grown for 21 days in a controlled greenhouse (26±2° C. day 20±2° C. night). Hood irrigation (tap water+Shefer 5:3:8 8 mM) was given at a 50% water content by weight. Compounds were soluble in water (DDW), and commercial herbicide control was soluble in formulation B (Table 4). Application was conducted with an industrial sprayer (TeeJet 6502E nozzle) at a rate of 2 kg/ha and spray volume of […]. Pre-emergence advanced dose response experiment application was conducted at six rates between 1-0.0312 kg/ha and spray volume of […]. Percentage of emergence was evaluated at 15 DAA. Visual phenotyping was recorded using a scale of 0-6 (0: no visible effect, 6: maximum effect) at 18 DAA. All experiments included an untreated control, a solvent control and a positive control (commercial herbicide A.I.). Statistical analysis for visual phenotyping determined by a median value of ≥3.5 and Fisher test (pval≤0.05). Statistical analysis for plant emergence determined by % emergence ≥50 and T test (pval≤0.05), as well as Wilcox test (pval≤0.05).

POAAN = assay: In-planta LTP pre-emergence, visual phenotype; type: in vivo, Poa annua; settings: monocot; for pest or weed control at 2000 g/ha: Poa annua, 432 h, read-out: IG Inhibited growth (% effect)
Procedure: as §2

AMAPA [4] = assay: In-planta LTP pre-emergence, visual phenotype; type: in vivo, Amaranthus palmeri; settings: dicot; for pest or weed control at 2000 g/ha: Amaranthus palmeri, 432 h, read-out: IG Inhibited growth (% effect)
Procedure: as §2

AMAPA [5] = assay: In-planta LTP post-emergence, visual phenotype; type: in vivo, Amaranthus palmeri; settings: dicot
Procedure: A basic panel of eight weed species (Table 3) sowed in 4×4×7 cm plastic pots containing a garden mix (klasmann). Each specie was sowed in a separate pot. In each pot, 10-15 seeds were sowed according to the specie viability. Timing of application determined at a 1-2 true leaf stage. The plants grew for 30 days in a controlled greenhouse (26±2° C. day, 20±2° C. night). Hood irrigation (tap water+Shefer 5:3:8 8 mM) was given at a 50% water content by weight. Two days before application, the tested plants thinned down to three plants per pot. Compounds were soluble in water (DDW), and commercial herbicide control was soluble in formulation B (Table 4). Before application, 1% (v/v) crop oil and 0.02% (v/v) surfactant (Tergitol™ 15-5-7) were added to the solution. Application was conducted with an industrial sprayer (TeeJet 6502E nozzle) at a rate of 2 kg/ha and spray volume of […]. Plants were evaluated at 3 time points (4, 8, 12 days after application (DAA)). At each time point, visual phenotyping was recorded using a scale of 0-6 (0: no visible effect, 6: maximum effect). At 12 DAA, plants foliage was harvested, dried and weighed for dry weight analysis.
Post-emergence advanced dose response experiment included 4 species: SETVI, ECHCO, AMAPA, ABUTH (Tables 3, 5). Application was conducted at six rates between 0.6-0.0187 kg/ha and spray volume of […]. Plants were evaluated at 4 time points (6, 12, 18 and 26 DAA). At each time point, visual phenotyping was recorded using a scale of 0-6 (0: no visible effect, 6: maximum effect). At 26 DAA, plants foliage was harvested, dried and weighed for dry weight analysis.
Post-emergence advanced wide panel experiment included 24 weed species (Table 5). Application was conducted at 2 rates of 2 kg/ha and 0.25 kg/ha and spray volume of […]. Visual phenotyping was recorded at 4, 11, 17 and 20 DAA using a scale of 0-6 (0: no visible effect, 6: maximum effect). At 21 DAA, plants foliage was harvested, dried, and weighed for dry weight analysis. All experiments included an untreated control, a solvent control, and a positive control (commercial herbicide A.I.). Statistical analysis for visual phenotyping determined by a median value of ≥3.5 and Fisher test (pval≤0.05). Statistical analysis for dry weight determined by % inhibition ≥50 and T test (pval≤0.05), as well as Wilcox test (pval≤0.05).

ALOMY = assay: In-planta LTP pre-emergence, visual phenotype; type: in vivo, Alopecurus myosuroides; settings: monocot
Procedure: as §2

LOLPE = assay: In-planta LTP pre-emergence, visual phenotype; type: in vivo, Lolium perenne; settings: monocot
Procedure: as §2

ECHCO = assay: In-planta LTP pre-emergence, visual phenotype; type: in vivo, Echinochloa colona; settings: monocot
Procedure: as §2

DIGSA = assay: In-planta LTP pre-emergence, visual phenotype; type: in vivo, Digitaria sanguinalis; settings: monocot
Procedure: as §2

SOLNI = assay: In-planta LTP pre-emergence, visual phenotype; type: in vivo, Solanum nigrum; settings: dicot
Procedure: as §2

EPPHL = assay: In-planta LTP pre-emergence, visual phenotype; type: in vivo, Euphorbia heterophylla; settings: dicot
Procedure: as §2

MATCA = assay: In-planta LTP pre-emergence, visual phenotype; type: in vivo, Matricaria chamomilla; settings: dicot
Procedure: as §2

ABUTH = assay: In-planta LTP pre-emergence, visual phenotype; type: in vivo, Abutilon theophrasti; settings: dicot
Procedure: as §2

CHEAL = assay: In-planta LTP pre-emergence, visual phenotype; type: in vivo, Chenopodium album; settings: dicot
Procedure: as §2

[6] = read-out: DE Disturbed emergence (% effect)
[7] = read-out: IG Inhibited growth (% effect)

Structure (SMILES) | in vitro Thermal Shift [1] [°C] | Emax (Arabidopsis thaliana [2]) [%] | HTPS - Dicot - Post ED50 (Arabidopsis thaliana [2]) [g/ha] | HTPS - Dicot - Pre ED50 (Arabidopsis thaliana [3]) [g/ha] | Emax (Arabidopsis thaliana [3]) [%] | HTPS - Monocot - Pre ED50 (Eragrostis teff) [g/ha] | Emax (Eragrostis teff) [%] | pest or weed control at 2000 g/ha (SETVI; [6]) [%] | pest or weed control at 2000 g/ha (SETVI; [7]) [%] | pest or weed control at 2000 g/ha (POAAN) [%] | pest or weed control at 2000 g/ha (AMAPA [4]) [%] | DE Disturbed emergence (% effect) (POAAN) | further results
CC(CN)Oc1cccc(C(=O)O)c1 (stereo not drawn) [Compound 102] | 13 | 92 | 127 | 127 | 100 | 650 | 62 | 100 | 100 | 60 | 60 | – | –
CC(N)COc1ccc(F)c(C(=O)O)c1 (stereo not drawn) [Compound 108] | 16 | 100 | 31 | 31 | 100 | 290 | 80 | 100 | 100 | 80 | 60 | DE (80) % | –
CC(N)COc1cc(Cl)cc(C(=O)O)c1 (stereo not drawn) [Compound 109] | 14 | – | – | – | – | 681 | 80 | 100 | – | 100 | 60 | DE (100), % | BL Bleaching (% effect) (AMAPA [5]): BL (40) %
CC(N)COc1cccc(C(=O)O)n1 (stereo not drawn) [Compound 116] | 16 | 100 | 3 | 10 | 100 | 10 | 100 | 100 | – | – | 80 | DE (100) % | IG Inhibited growth (% effect) (ALOMY): IG (100), %; W Wilting (% effect) (ALOMY): W^5 (100) %; DE Disturbed emergence (% effect) (LOLPE): DE (100) %; DE Disturbed emergence (% effect) (ECHCO): DE (100) %; DE Disturbed emergence (% effect) (DIGSA): DE (100) %; DAB Disturbed apical bud (% effect) (SOLNI): DAB^2 (80) %; IG Inhibited growth (% effect) (SOLNI): IG (80), %; BL Bleaching (% effect) (EPPHL): BL (80), %; DAB Disturbed apical bud (% effect) (EPPHL): DAB (80) %; IG Inhibited growth (% effect) (EPPHL): IG (60), %; C Chlorosis (% effect) (AMAPA [4]): C^3 (60), %; DAB Disturbed apical bud (% effect) (AMAPA [4]): DAB (100) %; BL Bleaching (% effect) (MATCA): BL^4 (40), %; DAB Disturbed apical bud (% effect) (MATCA): DAB (60) %; IG Inhibited growth (% effect) (MATCA): IG (80), %; BL Bleaching (% effect) (ABUTH): Bl (80), %; DAB Disturbed apical bud (% effect) (ABUTH): DAB (80) %; IG Inhibited growth (% effect) (ABUTH): IG (80), %; DAB Disturbed apical bud (% effect) (CHEAL): DAB (80) %; IG Inhibited growth (% effect) (CHEAL): IG (80), %
CC(N)COc1cncc(C(=O)O)n1 (stereo not drawn) [Compound 148] | 12 | 17 | – | – | 28 | – | 100 | 100 | 100 | 40 | – | – | DRD Disturbed root development (% effect) (SETVI): DRD^7 (100), %; DRD Disturbed root development (% effect) (ALOMY): DRD (60) %; DRD Disturbed root development (% effect) (POAAN): DRD (40) %; DE Disturbed emergence (% effect) (MATCA): DE (40) %
